Experimental data: US10556865B2, “Synergistic herbicidal composition containing certain pyridine or pyrimidine carboxylic acids and certain cereal and rice herbicides” (Dow AgroSciences, LLC, priority 2007, dated 2020)
Several values for one entry are separate records, joined by “and”; a condition that tells them apart may be missing. Equal values may be shown once.

Columns and labels:
Format in all cases: in vivo
[1] = test system: cut-leaf geranium (Geranium dissectum L; GERDI); test: Postemergence herbicidal activity of mixtures in cereal crops (greenhouse, visual injury)
Procedure: (§1) Seeds of the desired test plant species were planted in Sun Gro MetroMix® 306 planting mixture, which typically has a pH of 6.0 to 6.8 and an organic matter content of about 30 percent, in plastic pots with a surface area of 103.2 square centimeters (cm^2). When required to ensure good germination and healthy plants, a fungicide treatment and/or other chemical or physical treatment was applied. The plants were grown for 7-36 days in a greenhouse with an approximate 14 hour photoperiod which was maintained at about 18° C. during the day and 17° C. during the night. Nutrients and water were added on a regular basis and supplemental lighting was provided with overhead metal halide 1000-Watt lamps as necessary. The plants were employed for testing when they reached the second or third true leaf stage.
(§2) Treatments consisted of compound (as listed in Tables 1 through 64) and a second cereal herbicide alone and in combination. Weighed amounts of esters (methyl) or salts (TEA [triethylammonium], K [potassium]) of 4-amino-3-chloro -6-(4-chloro-2-fluoro-3-methoxyphenyl)pyridine-2-carboxylic acid (Compound A) or of 6-amino-5-chloro-2-(4-chloro-2-fluoro-3-methoxyphenyl)pyrimidine-4-carboxylic acid (Compound B), were placed in 25 milliliter (mL) glass vials and dissolved in a volume of 97:3 v/v acetone/DMSO to obtain 4.5 milligrams (mg) active ingredient (ai)/mL stock solutions. […] The concentrated stock solutions were diluted to 1.5 mg ai/mL with the addition of 2 volumes of an aqueous mixture containing acetone, water, isopropyl alcohol, DMSO, Agri-dex crop oil concentrate, and Triton® X-77 surfactant in a 64.7:26.0:6.7:2.0:0.7:0.01 v/v ratio. A dilution solution was prepared by mixing 1 volume of 97:3 v/v acetone/DMSO and 2 volumes of an aqueous mixture containing acetone, water, isopropyl alcohol, DMSO, Agri-dex crop oil concentrate, and Triton® X-77 surfactant in a 64.7:26.0:6.7:2.0:0.7:0.01 v/v ratio. Compound requirements are based upon a 12 mL application volume at a rate of 187 liters per hectare (L/ha). Spray solutions of the second cereal herbicide and experimental compound mixtures were prepared by adding the stock solutions to the appropriate amount of dilution solution to form 12 mL spray solution with active ingredients in two- and three-way combinations. Formulated compounds were applied to the plant material with an overhead Mandel track sprayer equipped with 8002E nozzles calibrated to deliver 187 L/ha over an application area of 0.503 square meters (m^2) at a spray height of 18 inches (43 cm) above average plant canopy. Control plants were sprayed in the same manner with the solvent blank.
(§3) The treated plants and control plants were placed in a greenhouse as described above and watered by sub-irrigation to prevent wash-off of the test compounds. After 20-22 days, the condition of the test plants as compared with that of the control plants was determined visually and scored on a scale of 0 to 100 percent where 0 corresponds to no injury and 100 corresponds to complete kill.
(§4) Colby's equation was used to determine the herbicidal effects expected from the mixtures (Colby, S. R. 1967. Calculation of the synergistic and antagonistic response of herbicide combinations. Weeds 15:20-22.).
(§5) The following equation was used to calculate the expected activity of mixtures containing two active ingredients, A and B: Expected=A+B−(A×B/100)

[2] = test system: kochia (Kochia scoparia L; KCHSC); test: as above
Procedure: as §1, §2, §3, §4, §5

[3] = test system: black mustard (Brassica nigra L; BRSNI); test: as above
Procedure: as §1, §2, §3, §4, §5

[4] = test system: Russian thistle (Salsola iberica L; SASKR); test: as above
Procedure: as §1, §2, §3, §4, §5

[5] = test system: scented mayweed (Matricaria chamomila L; MATCH); test: as above
Procedure: (§6) The plants were grown for 7-36 days in a greenhouse with an approximate 14 hour photoperiod which was maintained at about 18° C. during the day and 17° C. during the night. Nutrients and water were added on a regular basis and supplemental lighting was provided with overhead metal halide 1000-Watt lamps as necessary. The plants were employed for testing when they reached the second or third true leaf stage.
(§7) Treatments consisted of compound (as listed in Tables 1 through 64) and a second cereal herbicide alone and in combination. […] Control plants were sprayed in the same manner with the solvent blank.
as §3, §5

[6] = test system: wild pansy (Viola tricolor L; VIOTR); test: as above
Procedure: as §6, §7, §3, §5

[7] = test system: bird's-eye speedwell (Veronica persica L; VERPE); test: as above
Procedure: as §6, §7, §3, §5

[8] = test system: wild buckwheat (Polygonum convolvulus L; POLCO); test: as above
Procedure: as §1, §2, §3, §4, §5

[9] = test system: chickweed (Stellaria media L; STEME); test: as above
Procedure: as §1, §2, §3, §4, §5

[10] = test system: Canada thistle (Cirsium arvense L; CIRAR); test: as above
Procedure: as §6, §7, §3, §5

[11] = test system: rigid ryegrass (Lolium rigidum L; LOLRI); test: as above
Procedure: as §1, §2, §3, §4, §5

[12] = test system: windgrass (Apera spica-venti L; APESV); test: as above; conditions: Apera spica-venti, post-emergence, 3.75 g/ha, Table 15; read-out: APESV Ob
Procedure: as §1, with “When required to ensure good germination and healthy plants, a fungicide treatment and/or other chemical or physical treatment was applied.” left out
(§8) Treatments consisted of compound (as listed in Tables 1 through 64) and a second cereal herbicide alone and in combination. […] The concentrated stock solutions were diluted to 1.5 mg ai/mL with the addition of 2 volumes of an aqueous mixture containing acetone, water, isopropyl alcohol, DMSO, Agri-dex crop oil concentrate, and Triton® X-77 surfactant in a 64.7:26.0:6.7:2.0:0.7:0.01 v/v ratio. A dilution solution was prepared by mixing 1 volume of 97:3 v/v acetone/DMSO and 2 volumes of an aqueous mixture containing acetone, water, isopropyl alcohol, DMSO, Agri-dex crop oil concentrate, and Triton® X-77 surfactant in a 64.7:26.0:6.7:2.0:0.7:0.01 v/v ratio. Compound requirements are based upon a 12 mL application volume at a rate of 187 liters per hectare (L/ha). […] Formulated compounds were applied to the plant material with an overhead Mandel track sprayer equipped with 8002E nozzles calibrated to deliver 187 L/ha over an application area of 0.503 square meters (m^2) at a spray height of 18 inches […] above average plant canopy. Control plants were sprayed in the same manner with the solvent blank.
as §3, §4, §5

[13] = test system: downy brome (Bromus tectorum L; BROTE); test: as above
Procedure: as §1, §2, §3, §4, §5

[14] = test system: blackgrass (Alopecurus myosuroides L; ALOMY); test: Postemergence herbicidal activity of mixtures in cereal crops (greenhouse, visual injury 0-100 percent after 20-22 days); conditions: 8.75 g/ha, Table 19
Procedure: as §1, with “When required to ensure good germination and healthy plants, a fungicide treatment and/or other chemical or physical treatment was applied.” left out
as §8, §3, §4, §5

Nc1cc(Cl)nc(C(=O)O)c1Cl [Aminopyralid]
GERDI Ob ([1]; 2.5 g/ha alone): 0% | KCHSC Ob ([2]; 2.5 g/ha alone): 0% | BRSNI Ob ([3]; 2.5 g/ha alone): 0% | SASKR Ob ([4]; 2.5 g/ha alone): 18% | MATCH Ob ([5]; 2.5 g/ha alone): 10% and 8% | VIOTR Ob ([6]; 2.5 g/ha alone): 27% | VERPE Ob ([7]; 2.5 g/ha alone): 0%

CCC(Oc1ccc(F)c(C(F)(F)F)c1)C(=O)NCc1ccccc1 (centres unmarked) [Beflubutamid]
POLCO Ob ([8]; 35 g/ha): 10% | POLCO Ob ([8]; 70 g/ha): 20% | GERDI Ob ([1]; 35 g/ha): 0% | GERDI Ob ([1]; 70 g/ha): 0% | BRSNI Ob ([3]; 35 g/ha): 30% | BRSNI Ob ([3]; 70 g/ha): 30% | STEME Ob ([9]; 35 g/ha): 10% | STEME Ob ([9]; 70 g/ha): 10% | VIOTR Ob ([6]; 35 g/ha): 15% | VIOTR Ob ([6]; 70 g/ha): 23% | VERPE Ob ([7]; 35 g/ha): 15% | VERPE Ob ([7]; 70 g/ha): 23%

C[N+](C)(C)CCCl [Chlormequat]
POLCO Ob ([8]; 155 g/ha alone): 10% | GERDI Ob ([1]; 155 g/ha alone): 0% | KCHSC Ob ([2]; 155 g/ha alone): 0% | BRSNI Ob ([3]; 155 g/ha alone): 0% | STEME Ob ([9]; 155 g/ha alone): 0% | MATCH Ob ([5]; 155 g/ha alone): 0%

COc1c(Cl)ccc(-c2cc(N)c(Cl)c(C(=O)[O-])n2)c1F.[K+] [Compound A K-salt]
KCHSC Ob ([2]; 8.75 g/ha alone): 67% | KCHSC Ob ([2]; 17.5 g/ha alone): 77% | KCHSC Ob ([2]; 35 g/ha alone): 90% | KCHSC Ob ([2]; alone 8.75 g/ha): 67% | KCHSC Ob ([2]; alone 17.5 g/ha): 77% | KCHSC Ob ([2]; alone 35 g/ha): 90% | SASKR Ob ([4]; 8.75 g/ha alone): 63% | SASKR Ob ([4]; 17.5 g/ha alone): 67% | SASKR Ob ([4]; 35 g/ha alone): 73% | MATCH Ob ([5]; 8.75 g/ha alone): 50% | MATCH Ob ([5]; 17.5 g/ha alone): 62% | MATCH Ob ([5]; 35 g/ha alone): 57% | MATCH Ob ([5]; alone 8.75 g/ha): 50% | MATCH Ob ([5]; alone 17.5 g/ha): 62% | MATCH Ob ([5]; alone 35 g/ha): 57% | VIOTR Ob ([6]; 8.75 g/ha alone): 20% | VIOTR Ob ([6]; 17.5 g/ha alone): 48% | VIOTR Ob ([6]; 35 g/ha alone): 42% | VERPE Ob ([7]; 8.75 g/ha alone): 73% | VERPE Ob ([7]; 17.5 g/ha alone): 78% | VERPE Ob ([7]; 35 g/ha alone): 83% | VERPE Ob ([7]; alone 8.75 g/ha): 73% | VERPE Ob ([7]; alone 17.5 g/ha): 78% | VERPE Ob ([7]; alone 35 g/ha): 83%

COc1ncc(F)c2nc(S(=O)(=O)Nc3c(F)cccc3F)nn12 [Florasulam]
MATCH Ob ([5]; 1.3 g/ha alone): 83% | CIRAR Ob ([10]; 1.25 g/ha): 20% | VIOTR Ob ([6]; 1.25 g/ha): 10% | VIOTR Ob ([6]; 1.3 g/ha alone): 53% | VERPE Ob ([7]; 1.25 g/ha): 5% | VERPE Ob ([7]; 1.3 g/ha alone): 28%

COc1cc(OC)nc(NC(=O)NS(=O)(=O)c2nc(C(F)(F)F)ccc2C(=O)O)n1 [Flupyrsulfuron, 2-[[[[(4,6-dimethoxy-2-pyrimidinyl)amino]carbonyl]amino]sulfonyl]-6-(trifluoromethyl)-3-pyridinecarboxylic acid, reference compound]
LOLRI Ob ([11]; 5 g/ha, Table 12): 0% | CIRAR Ob ([10]; 5 g/ha): 20% | pest or weed control at 5 g/ha ([6]; Viola tricolor, post-emergence, read-out: VIOTR Ob): 0% | VERPE Ob ([7]; 5 g/ha): 0% | pest or weed control at 5 g/ha ([7]; Veronica persica, post-emergence, read-out: VERPE Ob): 0%

CC(C)c1ccc(NC(=O)N(C)C)cc1 [Isoproturon]
KCHSC Ob ([2]; 300 g/ha alone): 50% | pest or weed control at 300 g/ha ([3]; Brassica, post-emergence, 300 g/ha alone, read-out: BRSNI Ob): 40% | SASKR Ob ([4]; 300 g/ha alone): 33% | pest or weed control at 300 g/ha ([6]; Viola tricolor, post-emergence, 300 g/ha alone, read-out: VIOTR Ob): 0%

COc1cc(OC)nc(NC(=O)NS(=O)(=O)c2cc(CNS(C)(=O)=O)ccc2C(=O)O)n1 [Mesosulfuron, 2-[[[[(4,6-dimethoxy-2-pyrimidinyl)amino]carbonyl]amino]sulfonyl]-4-[[(methylsulfonyl)amino]-methyl]benzoic acid, reference compound]
pest or weed control at 3.75 g/ha [12]: 93% | BROTE Ob ([13]; 3.75 g/ha, Table 15): 75% | BROTE Ob ([13]; 3.8 g/ha, Table 8): 73% | pest or weed control at 3.75 g/ha ([9]; Stellaria media, post-emergence, 3.75 g/ha, read-out: STEME Ob): 0% | pest or weed control at 3.75 g/ha ([5]; Matricaria, post-emergence, 3.75 g/ha, read-out: MATCH Ob): 5% | CIRAR Ob ([10]; 3.75 g/ha): 20%

CCCN(CCC)C(=O)SCc1ccccc1 [Prosulfocarb]
SASKR Ob ([4]; 500 g/ha alone): 0% | pest or weed control at 500 g/ha ([9]; Stellaria media, post-emergence, 500 g/ha alone, read-out: STEME Ob): 0% | pest or weed control at 500 g/ha ([5]; Matricaria, post-emergence, 500 g/ha alone, read-out: MATCH Ob): 0%

CCS(=O)(=O)c1nc2ccccn2c1S(=O)(=O)NC(=O)Nc1nc(OC)cc(OC)n1 [Sulfosulfuron, N-[[(4,6-dimethoxy-2-pyrimidinyl)amino]carbonyl]-2-(ethylsulfonyl)imidazo[1,2-a]pyridine-3-sulfonamide, reference compound]
ALOMY Ob [14]: 85% | LOLRI ([11]; 8.75 g/ha, Table 19): 10% | CIRAR Ob ([10]; 8.75 g/ha): 10% | pest or weed control at 8.75 g/ha ([7]; Veronica persica, post-emergence, 8.75 g/ha, read-out: VERPE Ob): 30%
